This note sets out measurements from US20100063065A1 (Inpharmatica Limited, priority 2005, published 2010).

For one assay, the target named is T1, PPARδ (Homo sapiens, UniProt Q03181).
T1 construct: fused to amino acids 147-441 of PPARδ downstream of CMV promoter; expressed in transfected cells; host or cells: HEK293 cells, transiently transfected with pFACMV-PPARδ using Fugene
T1 sequence (Q03181 147-441): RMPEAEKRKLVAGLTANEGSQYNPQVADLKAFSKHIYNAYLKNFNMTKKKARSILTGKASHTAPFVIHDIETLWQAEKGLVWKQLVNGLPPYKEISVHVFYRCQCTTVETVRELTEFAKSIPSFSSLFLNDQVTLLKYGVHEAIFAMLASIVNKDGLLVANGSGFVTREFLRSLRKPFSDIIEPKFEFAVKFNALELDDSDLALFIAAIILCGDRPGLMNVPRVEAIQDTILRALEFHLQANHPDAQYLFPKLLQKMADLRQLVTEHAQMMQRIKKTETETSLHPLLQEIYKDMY
Description: Transactivation assay (PPARδ GAL4 assay) in transiently transfected HEK293 cells. In kind it is cell-based. To be noted: luciferase reporter, Table 1. The gist of the method: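 Luciferase luminescence after 24 h compound treatment (0-30 μM final, OptiMEM, 37° C./5% CO2) gave EC50 by sigmoidal fitting, with activity normalised to GW501516 as percent. Reporter system: transiently transfected HEK293 expressing GAL4 DNA-binding domain fused to human PPARδ aa 147-441, plus 5×GAL4-driven luciferase.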
`CCc1cc(C(=O)c2ccc(C(F)(F)F)cc2)c(NC(=O)CSCC(=O)O)s1` [Example 45, {[5-Ethyl-3-(4-trifluoromethylbenzoyl)-thiophen-2-ylcarbamoyl]-methylsulfanyl}-acetic acid] displayed an EC50 of less than 100 nM.

As to `CCc1cc(C(=O)c2ccc(-c3cncnc3)cc2)c(NC(=O)CSCC(=O)O)s1` [Example 41, {[5-Ethyl-3-(4-pyrimidin-5-yl-benzoyl)-thiophen-2-ylcarbamoyl]-methylsulfanyl}-acetic acid], the EC50 lay in the range of 1000 to 30000 nM.

In the case of `CCc1cc(C(=O)c2ccc(OC(F)(F)F)cc2)c(NC(=O)c2ccc(OCC(=O)O)cc2)s1` [Example 99, {4-[5-Ethyl-3-(4-trifluoromethoxy-benzoyl)-thiophen-2-ylcarbamoyl]-phenoxy}-acetic acid], the EC50 is less than 100 nM.

Take `CCc1cc(C(=O)c2ccc(OC(F)(F)F)cc2)c(NC(=O)CNC(CC)C(=O)O)s1` (stereo not drawn) [Example 80, 2-({[5-Ethyl-3-(4-trifluoromethoxy-benzoyl)-thiophen-2-ylcarbamoyl]-methyl}-amino)-butyric acid]: the EC50 is less than 100 nM.

`CCc1cc(C(=O)c2ccc(OC)cc2)c(NC(=O)CCCC(=O)O)s1` [Example 7, 4-[5-Ethyl-3-(4-methoxy-benzoyl)-thiophen-2-ylcarbamoyl]-butyric acid] gave an EC50 of 1000 to 30000 nM.

`CCc1cc(C(=O)c2ccc(OC(F)(F)F)cc2)c(NC(=O)CN[C@@H](C(=O)O)C(C)C)s1` (single isomer, unassigned) [Example 75, 2-({[5-Ethyl-3-(4-trifluoromethoxy-benzoyl)-thiophen-2-ylcarbamoyl]-methyl}-amino)-3-methyl-butyric acid] registered an EC50 of less than 100 nM.

Take `CCc1cc(C(=O)c2ccc(OC(F)(F)F)cc2)c(NC(=O)c2ccc(SCC(=O)O)cc2)s1` [Example 103, {4-[5-Ethyl-3-(4-trifluoromethoxy-benzoyl)-thiophen-2-ylcarbamoyl]-phenylsulfanyl}-acetic acid]: the EC50 was 100 to 1000 nM.

Turning to `CCc1cc(C(=O)c2ccc(-c3cnn(C)c3)cc2)c(NC(=O)CSCC(=O)O)s1` [Example 42, ({5-Ethyl-3-[4-(1-methyl-1H-pyrazol-4-yl)-benzoyl]-thiophen-2-ylcarbamoyl}-methylsulfanyl)-acetic acid], the EC50 was in the range of 1000 to 30000 nM.

As to `CCc1cc(C(=O)c2ccc(OC(F)(F)F)cc2)c(NC(=O)c2cccc(OCC(=O)O)c2)s1` [Example 100, {3-[5-Ethyl-3-(4-trifluoromethoxy-benzoyl)-thiophen-2-ylcarbamoyl]-phenoxy}-acetic acid], the EC50 lay within 100 to 1000 nM.

`CCc1cc(C(=O)c2cccc3ccccc23)c(NC(=O)CSCC(=O)O)s1` [Example 46, {[5-Ethyl-3-(naphthalene-1-carbonyl)-thiophen-2-ylcarbamoyl]-methylsulfanyl}-acetic acid] gave an EC50 of 1000 to 30000 nM.

In the case of `COc1ccc(C(=O)c2cc(Cl)sc2NC(=O)CSCC(=O)O)cc1` [Example 66, {[5-Chloro-3-(4-methoxy-benzoyl)-thiophen-2-ylcarbamoyl]-methylsulfanyl}-acetic acid], the EC50 lay within 1000 to 30000 nM.

Take `CCc1cc(C(=O)c2ccc(-c3ccc(OC(F)(F)F)cc3)cc2)c(NC(=O)CSCC(=O)O)s1` [Example 39, {[5-Ethyl-3-(4′-trifluoromethoxy-biphenyl-4-carbonyl)-thiophen-2-ylcarbamoyl]-methylsulfanyl}-acetic acid]: the EC50 is less than 100 nM.

Regarding `CCc1cc(C(=O)c2ccc(C)c(C)c2)c(NC(=O)CC2(CC(=O)O)CCCC2)s1` [Example 53, (1-{[3-(3,4-Dimethyl-benzoyl)-5-ethyl-thiophen-2-ylcarbamoyl]-methyl}-cyclopentyl)-acetic acid], the EC50 fell in the range of 1000 to 30000 nM.

`CCc1cc(C(=O)c2ccccc2)c(NC(=O)CSCC(=O)O)s1` [Example 14, [(3-Benzoyl-5-ethyl-thiophen-2-ylcarbamoyl)-methylsulfanyl]-acetic acid] displayed an EC50 of 1000 to 30000 nM.

As for `CCc1cc(C(=O)c2ccc(F)c(Cl)c2)c(NC(=O)CC(C)(C)CC(=O)O)s1` [Example 32, 4-[3-(3-Chloro-4-fluoro-benzoyl)-5-ethyl-thiophen-2-ylcarbamoyl]-3,3-dimethyl-butyric acid], the EC50 lay within 1000 to 30000 nM.

As to `CCc1cc(C(=O)c2cccc(-c3ccc(F)cc3)c2)c(NC(=O)CSCC(=O)O)s1` [Example 43], the EC50 lay in the range of 100 to 1000 nM.

In turn, `CCc1cc(C(=O)c2ccc(OC(F)(F)F)cc2)c(NC(=O)CSc2ccc(OCC(=O)O)cc2)s1` [Example 93] had an EC50 of 100 to 1000 nM.

In the case of `CCc1cc(C(=O)c2ccc(F)cc2)c(NC(=O)CSC(C)(C)C(=O)O)s1` [Example 19, 2-{[5-Ethyl-3-(4-fluoro-benzoyl)-thiophen-2-ylcarbamoyl]-methylsulfanyl}-2-methyl-propionic acid], the EC50 lay within 100 to 1000 nM.

`CCc1cc(C(=O)c2ccc(C)c(C)c2)c(NC(=O)CSCC(=O)O)s1` [Example 51, {[3-(3,4-Dimethyl-benzoyl)-5-ethyl-thiophen-2-ylcarbamoyl]-methylsulfanyl}-acetic acid] yielded an EC50 of 1000 to 30000 nM.

The assay is the same for the next values; noted with them: luciferase reporter, Table 2.
For the compound `CCc1cc(C(=O)c2ccc(OC(F)(F)F)cc2)c(NC(=O)CCCC(=O)O)s1` [Example 104, 4-[5-Ethyl-3-(4-trifluoromethoxy-benzoyl)-thiophen-2-ylcarbamoyl]-butyric acid], the EC50 lay in the range of 100 to 1000 nM.

In turn, `CCc1cc(C(=O)c2ccc(Cl)cc2)c(NC(=O)CSc2ccc(OC(C)(C)C(=O)O)cc2)s1` [Example 138, 2-(4-{[3-(4-Chloro-benzoyl)-5-ethyl-thiophen-2-ylcarbamoyl]-methylsulfanyl}-phenoxy)-2-methyl-propionic acid] displayed an EC50 of 100 to 1000 nM.

`CCc1cc(C(=O)c2ccc(OC(F)(F)F)c(Cl)c2)c(NC(=O)CN[C@H](C(=O)O)C(C)C)s1` [Example 169, (S)-2-({[3-(3-Chloro-4-trifluoromethoxy-benzoyl)-5-ethyl-thiophen-2-ylcarbamoyl]-methyl}-amino)-3-methyl-butyric acid] displayed an EC50 of 100 to 1000 nM.

Compound `CCc1cc(C(=O)c2ccc(OC(F)(F)F)cc2)c(NC(=O)C(CC)NCC(=O)O)s1` (stereo not drawn) [Example 121, {1-[5-Ethyl-3-(4-trifluoromethoxy-benzoyl)-thiophen-2-ylcarbamoyl]-propylamino}-acetic acid] returned an EC50 of 100 to 1000 nM.

With `CCc1cc(C(=O)c2ccc(OC(F)(F)F)cc2)c(NC(=O)CCSCC(=O)O)s1` [Example 194, {2-[5-Ethyl-3-(4-trifluoromethoxy-benzoyl)-thiophen-2-ylcarbamoyl]-ethylsulfanyl}-acetic acid], the EC50 is less than 100 nM.

Regarding `CCc1cc(C(=O)c2nc3ccc(OC(F)(F)F)cc3s2)c(NC(=O)CSCC(=O)O)s1` [Example 153, {[5-Ethyl-3-(6-trifluoromethoxy-benzothiazole-2-carbonyl)-thiophen-2-ylcarbamoyl]-methylsulfanyl}-acetic acid], the EC50 lay within 100 to 1000 nM.

`CCc1cc(C(=O)c2ccc(Cl)c(Cl)c2)c(NC(=O)CN[C@H](C(=O)O)C(C)C)s1` [Example 170, (S)-2-({[3-(3,4-Dichloro-benzoyl)-5-ethyl-thiophen-2-ylcarbamoyl]-methyl}-amino)-3—methyl-butyric acid] displayed an EC50 of 100 to 1000 nM.

`CCc1cc(C(=O)c2ccc(OC(F)(F)F)cc2)c(NC(=O)COc2ccc(OCC(=O)O)cc2)s1` [Example 117, (4-{[5-Ethyl-3-(4-trifluoromethoxy-benzoyl)-thiophen-2-ylcarbamoyl]-methoxy}-phenoxy)-acetic acid]: the EC50 was in the range of 1000 to 30000 nM.

`CCc1cc(C(=O)c2ccc(F)cc2)c(NC(=O)CSc2ccc(OCC(=O)O)cc2)s1` [Example 135, (4-{[5-Ethyl-3-(4-fluoro-benzoyl)-thiophen-2-ylcarbamoyl]-methylsulfanyl}-phenoxy)-acetic acid] had an EC50 of 1000 to 30000 nM.

With `CCc1cc(C(=O)c2ccc(OC(F)(F)F)cc2)c(NC(=O)CN2[C@@H](CC)CC[C@@H]2C(=O)O)s1` [Example 183, (2R,5S)-5-Ethyl-1-{[5-ethyl-3-(4-trifluoromethoxy-benzoyl)-thiophen-2-ylcarbamoyl]-methyl}-pyrrolidine-2-carboxylic acid], the EC50 was less than 100 nM.

In turn, `CCc1cc(C(=O)c2ccc(OC(F)(F)F)cc2)c(NC(=O)CN2CCC(C(=O)O)CC2)s1` [Example 163, 1-{[5-Ethyl-3-(4-trifluoromethoxy-benzoyl)-thiophen-2-ylcarbamoyl]-methyl}-piperidine-4-carboxylic acid] came in with an EC50 of 100 to 1000 nM.

On to `CCc1cc(C(=O)c2ccc(OC(F)(F)F)cc2)c(NC(=O)CN2CCCCC2C(=O)O)s1` (stereo not drawn) [Example 165, 1-{[5-Ethyl-3-(4-trifluoromethoxy-benzoyl)-thiophen-2-ylcarbamoyl]-methyl}-piperidine-2-carboxylic acid], for which the EC50 fell in the range of 100 to 1000 nM.

With `CCc1cc(C(=O)c2ccc(Cl)cc2)c(NC(=O)CCC(C)(C)C(=O)O)s1` [Example 147, 4-[3-(4-Chloro-benzoyl)-5-ethyl-thiophen-2-ylcarbamoyl]-2,2-dimethyl-butyric acid], the EC50 lay within 100 to 1000 nM.

In the case of `CCc1cc(C(=O)c2ccc(OC(F)(F)F)cc2)c(NC(=O)C(NCC(=O)O)c2ccccc2)s1` (stereo not drawn) [Example 122, ({[5-Ethyl-3-(4-trifluoromethoxy-benzoyl)-thiophen-2-ylcarbamoyl]-phenyl-methyl}-amino)-acetic acid], the EC50 was in the range of 100 to 1000 nM.

Usually EC50 stands for the concentration giving half of the maximal effect. The low end stands for an effect from little substance, the high end for a need for much substance.
